Common to all, as to set-up: species or system A/J mice
The subject of one assay is 5A12 mAb. As to conditions: free analogue 0.00035-200 μM inhibiting binding of mAb 5A12 to Oua-BGG. Here is the method: (§1) Competition ELISA was used first to determine the relative affinity of each mAb for Oua and Dig. The 96-well PVC plates were coated with 50 μl of 5 μg/ml Oua-BGG in PBSA. First we determined the Ab concentration which was not in excess of immobilized antigen. Using the direct binding assay described above, the concentration of Ab at which 50% binding was achieved was ascertained. Inhibition of binding of Abs to Oua-BGG was determined by adding 25 μl Ab (concentrations as determined above) and 25 μl of free Oua (0.001-200 μM, 2-fold dilutions). Percent inhibition is the ratio (OD450 in the presence of 1% BSA−OD450 in the presence of Oua)/(OD450 in the presence of 1% BSA)×100. The relative affinity (IC50) is the Oua concentration that inhibits 50% of the binding of Ab to Oua-BGG.
Competition ELISA was used to determine the cross reactivity of the mAbs with different digitalis glycosides (Oua, Dig, gitoxin and digitoxin and their derivatives listed in Tables I and II) and with endogenous steroid hormones (cortisone, corticosterone and progesterone). In these assays binding of mAbs to Oua-BGG was determined in the presence or absence of various concentrations (0.00035-200 μM) of free digitalis glycosides and steroid hormones as described above. […]

The subject of a further assay is 1-10 mAb. As to conditions: free analogue 0.00035-200 μM inhibiting binding of mAb 1-10 to Oua-BGG. Here is the method: as §1
(§2) Competition ELISA was used to determine the cross reactivity of the mAbs with different digitalis glycosides (Oua, Dig, gitoxin and digitoxin and their derivatives listed in Tables I and II) and with endogenous steroid hormones (cortisone, corticosterone and progesterone). In these assays binding of mAbs to Oua-BGG was determined in the presence or absence of various concentrations (0.00035-200 μM) of free digitalis glycosides and steroid hormones as described above.
(§3) Inhibition assays were performed to identify clones that produce mAbs, the binding of which to Oua-BGG could be inhibited with free Oua at μM concentrations. Abs were titrated in direct binding assays to determine the concentration equivalent to 35-50% binding to Oua-BGG. Binding of Abs to Oua-BGG was determined in the presence or absence of 0.00035-200 μM of free Oua. Ab binding was detected using HRP-goat anti-mouse Ab. […] Percentage inhibition was calculated as described in Materials and Methods.

The next assay deals with 26-10 mAb. As to conditions: free analogue 0.00035-200 μM inhibiting binding of mAb 26-10 to Oua-BGG. Here is the method: as §1, §2, §3
For a further assay, the system named is 7-1 mAb. Conditions: free analogue 0.00035-200 μM inhibiting binding of mAb 7-1 to Oua-BGG. Here is the method: as §1, §2, §3

Bounds are passed on as bounds.

As usually defined, the IC50 is the concentration at which inhibition is half-maximal. On to `CC(=O)O[C@H]1CC[C@@]2(C)[C@H](CC[C@@H]3[C@@H]2C[C@@H](OC(C)=O)[C@]2(C)[C@@H](C4=CC(=O)OC4)CC[C@]32O)C1` [Digoxigenin-3,12-diacetate], for which the IC50 in the assay with 5A12 mAb was above 100 µM; with 1-10 mAb, above 100 µM; in the assay with 26-10 mAb it was 6 µM; with 7-1 mAb it was above 100 µM.

As to `C[C@@H]1O[C@@H](O[C@H]2CC[C@]3(C=O)[C@H]4CC[C@]5(C)[C@@H](C6=CC(=O)OC6)CC[C@]5(O)[C@@H]4CC[C@]3(O)C2)[C@H](O)[C@H](O)[C@H]1O` [Convallatoxin], the IC50 in the assay with 5A12 mAb came out at 2 µM; with 1-10 mAb it was 3 µM; in the assay with 26-10 mAb it was 0.1 µM; in the assay on 7-1 mAb, 3 µM.

Take `C[C@]12CC[C@H]3[C@@H](CC[C@]4(O)C[C@@H](O)CC[C@]34C=O)[C@@]1(O)CC[C@@H]2C1=CC(=O)OC1` [Strophanthidin]: the half-inhibitory concentration (IC50) in the assay with 5A12 mAb was found to be 4 µM; with 1-10 mAb it was 10 µM; in the assay with 26-10 mAb, 0.2 µM; in the assay on 7-1 mAb, 10 µM.

In the case of `CC(=O)[C@H]1CC[C@H]2[C@@H]3CCC4=CC(=O)CC[C@]4(C)[C@H]3CC[C@]12C` [Progesterone], the IC50 in the assay on 5A12 mAb was above 100 µM; in the assay with 1-10 mAb, above 100 µM; in the assay with 26-10 mAb, 2 µM; in the assay on 7-1 mAb, above 100 µM.

Regarding `CC(=O)O[C@H]1C[C@]2(O)[C@@H]3CC[C@@H]4C[C@@H](O)CC[C@]4(C)[C@H]3CC[C@]2(C)[C@H]1C1=CC(=O)OC1` [Oleandrigenin], the IC50 with 5A12 mAb, in the assay on 1-10 mAb, in the assay with 26-10 mAb and in the assay with 7-1 mAb was above 100 µM in each case.

On to `CC(=O)O[C@H]1CC[C@]2(C=O)[C@H]3CC[C@]4(C)[C@@H](C5=CC(=O)OC5)CC[C@]4(O)[C@@H]3CC[C@]2(O)C1` [Acetylstrophanthidin], for which the IC50 with 5A12 mAb is 2 µM; in the assay on 1-10 mAb it was 6 µM; with 26-10 mAb, 0.2 µM; in the assay on 7-1 mAb, 6 µM.

Regarding `C[C@H]1O[C@@H](O[C@H]2[C@@H](O)C[C@H](O[C@H]3[C@@H](O)C[C@H](O[C@H]4CC[C@@]5(C)[C@H](CC[C@@H]6[C@@H]5CC[C@]5(C)[C@@H](C7=CC(=O)OC7)[C@@H](O)C[C@]65O)C4)O[C@@H]3C)O[C@@H]2C)C[C@H](O)[C@@H]1O` [Gitoxin], the IC50 in the assay with 5A12 mAb was 100 µM; in the assay with 1-10 mAb, above 100 µM; with 26-10 mAb it was 1.5 µM; with 7-1 mAb, above 100 µM.

On to `CO[C@@H]1[C@H](O)[C@@H](O[C@@H]2C[C@H]3CC[C@@H]4[C@H](CC[C@]5(C)[C@@H](C6=CC(=O)OC6)CC[C@]45O)[C@@]3(C)[C@H](O)C2)O[C@@H](C)[C@@H]1O` [Acovenoside], for which the IC50 was 5 µM with 5A12 mAb, 8 µM in the assay with 1-10 mAb, 0.2 µM in the assay with 26-10 mAb and 8 µM in the assay on 7-1 mAb.

In the case of `C[C@H]1O[C@@H](O[C@H]2[C@@H](O)C[C@H](O[C@H]3[C@@H](O)C[C@H](O[C@H]4CC[C@@]5(C)[C@H](CC[C@@H]6[C@@H]5CC[C@]5(C)[C@@H](C7=CC(=O)OC7)CC[C@]65O)C4)O[C@@H]3C)O[C@@H]2C)C[C@H](O)[C@@H]1O` [Digitoxin], the IC50 in the assay on 5A12 mAb was 3 µM; in the assay on 1-10 mAb, 3 µM; in the assay with 26-10 mAb, 0.02 µM; with 7-1 mAb, 3 µM.

`C[C@]12CCC(=O)C=C1CC[C@@H]1[C@@H]2C(=O)C[C@@]2(C)[C@H]1CC[C@]2(O)C(=O)CO` [Cortisone]: the IC50 in the assay on 5A12 mAb was above 100 µM; in the assay with 1-10 mAb, above 100 µM; in the assay with 26-10 mAb, 100 µM; with 7-1 mAb, above 100 µM.

As to `C[C@]12C[C@H](O)[C@H]3[C@@H](CCC4=CC(=O)CC[C@@]43C)[C@@H]1CC[C@@H]2C(=O)CO` [Corticosterone], the IC50 in the assay on 5A12 mAb, with 1-10 mAb, in the assay on 26-10 mAb and with 7-1 mAb was above 100 µM in each case.

As for `C[C@@H]1O[C@@H](O[C@H]2C[C@@H](O)[C@]3(CO)[C@H]4[C@H](O)C[C@]5(C)[C@@H](C6=CC(=O)OC6)CC[C@]5(O)[C@@H]4CC[C@]3(O)C2)[C@H](O)[C@H](O)[C@H]1O` [Ouabain], the IC50 with 5A12 mAb came to 10 µM; in the assay with 1-10 mAb it was 25 µM; with 26-10 mAb, 0.37 µM; in the assay on 7-1 mAb, 20 µM.

For the compound `CC(=O)O[C@H]1C[C@]2(O)[C@@H]3CC[C@@H]4C[C@@H](O[C@H]5C[C@H](O)[C@H](O[C@H]6C[C@H](O)[C@H](O[C@H]7C[C@H](O)[C@H](O)[C@@H](C)O7)[C@@H](C)O6)[C@@H](C)O5)CC[C@]4(C)[C@H]3CC[C@]2(C)[C@H]1C1=CC(=O)OC1` [16-acetylgitoxin], the IC50 with 5A12 mAb was above 100 µM; in the assay on 1-10 mAb, above 100 µM; in the assay with 26-10 mAb, 0.5 µM; in the assay on 7-1 mAb, above 100 µM.

As for `C[C@]12CC[C@H](O)C[C@H]1CC[C@@H]1[C@@H]2CC[C@]2(C)[C@@H](C3=CC(=O)OC3)CC[C@]12O` [Digitoxigenin], the IC50 was found to be 4 µM in the assay on 5A12 mAb, 4 µM with 1-10 mAb, 0.04 µM in the assay with 26-10 mAb and 4 µM with 7-1 mAb.

Consider `C[C@H]1O[C@@H](O[C@H]2[C@@H](O)C[C@H](O[C@H]3[C@@H](O)C[C@H](O[C@H]4CC[C@@]5(C)[C@H](CC[C@@H]6[C@@H]5C[C@@H](O)[C@]5(C)[C@@H](C7=CC(=O)OC7)CC[C@]65O)C4)O[C@@H]3C)O[C@@H]2C)C[C@H](O)[C@@H]1O` [Digoxin], for which the half-inhibitory concentration (IC50) in the assay on 5A12 mAb was above 100 µM; with 1-10 mAb, above 100 µM; in the assay on 26-10 mAb, 0.006 µM; in the assay on 7-1 mAb, above 100 µM.

Consider `CC(=O)OC1CCC2(C)C(CCC3C2CCC2(C)C(C4=CC(=O)OC4)C(OC(C)=O)CC32O)C1` (stereo not shown) [Gitoxigenin-3,16-diacetate], for which the IC50 with 5A12 mAb, with 1-10 mAb, with 26-10 mAb and with 7-1 mAb was above 100 µM in each case.

Take `C[C@]12C[C@@H](O)[C@H]3[C@@H](CC[C@]4(O)C[C@@H](O)C[C@@H](O)[C@]34CO)[C@@]1(O)CC[C@@H]2C1=CC(=O)OC1` [Ouabagenin]: the IC50 in the assay on 5A12 mAb stood at 16 µM; in the assay on 1-10 mAb, 30 µM; with 26-10 mAb it was 0.4 µM; in the assay on 7-1 mAb, 30 µM.

Consider `CO[C@H]1C[C@H](O[C@H]2CC[C@@]3(C)[C@H](CC[C@@H]4[C@@H]3CC[C@]3(C)[C@@H](C5=CC(=O)OC5)[C@@H](OC(C)=O)C[C@]43O)C2)O[C@@H](C)[C@@H]1O` [Oleandrin], for which the IC50 with 5A12 mAb, in the assay with 1-10 mAb, in the assay on 26-10 mAb and in the assay with 7-1 mAb was above 100 µM throughout.

On to `C[C@H]1O[C@@H](O[C@H]2CC[C@]3(C=O)[C@H]4CC[C@]5(C)[C@@H](C6=CC(=O)OC6)CC[C@]5(O)[C@@H]4CC[C@]3(O)C2)C[C@H](O)[C@@H]1O` [Helveticoside], for which the IC50 turned out to be 150 µM in the assay on 5A12 mAb, 150 µM with 1-10 mAb, 0.2 µM with 26-10 mAb and 150 µM with 7-1 mAb.

The values are drawn from patent US7348412B1, “Ouabain-specific monoclonal antibodies” (priority 1999, dated 2008).
